biological target: T1, Interleukin-1 receptor-associated kinase 4 (Homo sapiens, UniProt Q9NWZ3); assay: Biochemical Assay: The biochemical assay is in a AlphaScreen format. The kinase reaction is based on the IRAK-4 phosphorylation of a biotin labeled peptide. The phosphopeptide is incubated with anti-phosphothreonine antibody as well as streptavidin- and protein A-coated beads. Binding of the protein-A coated beads to the antibody and the streptavidin beads to the peptide, leads to an energy transfer from one bead to the other, ultimately producing a luminescent/fluorescent signal.Generally, the kinase reaction is carried out at 1 nM IRAK4, 1.6 μM peptide, 10 μM ATP in reaction buffer 50 mM Hepes, 60 mM NaCl, 5 mM MgCl2, 0.25 mM MnCl2, 2 mM DTT, 0.01% BSA, 0.01% Tween-20) for 3.5 h at RT.
T1 sequence (Q9NWZ3 whole entry): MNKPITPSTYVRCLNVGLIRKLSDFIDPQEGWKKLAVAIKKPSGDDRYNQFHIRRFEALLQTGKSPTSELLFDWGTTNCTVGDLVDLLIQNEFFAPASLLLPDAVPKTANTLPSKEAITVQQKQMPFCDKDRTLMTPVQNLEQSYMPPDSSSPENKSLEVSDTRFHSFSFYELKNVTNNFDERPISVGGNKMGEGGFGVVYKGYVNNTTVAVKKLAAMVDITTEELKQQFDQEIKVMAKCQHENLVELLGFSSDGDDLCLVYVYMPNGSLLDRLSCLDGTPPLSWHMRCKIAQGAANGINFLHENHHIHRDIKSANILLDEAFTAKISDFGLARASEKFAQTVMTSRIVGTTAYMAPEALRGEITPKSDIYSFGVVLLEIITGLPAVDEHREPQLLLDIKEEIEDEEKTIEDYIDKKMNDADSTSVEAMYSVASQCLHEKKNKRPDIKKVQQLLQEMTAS

Compared with CC(C)C1NC(=O)c2nn(C3CCOCC3)cc2NC(=O)c2csc(n2)-c2ccnc(c2)CCCNC1=O (stereo not given), O=C1NCCCOC2CCCC(CNc3cc(ccn3)-c3nc1cs3)C2 (stereo not given) is higher in IC50: < 10 µM for the first, > 10 µM for the second. The first is the more potent here.

Cn1cc2c(n1)C(=O)NCCOCCOc1cc(ccn1)-c1cncc(c1)C(=O)N2 and Cn1cc2c(n1)C(=O)NCCOCCOc1cc(ccn1)-c1cc(ccn1)C(=O)N2 cannot be ordered by IC50: < 10 µM for the first, < 1 µM for the second.

For Cn1cc2c(n1)C(=O)NCCOCCOc1cc(ccn1)-c1cc(cs1)C(=O)N2, the IC50 was < 0.1 µM.

— ChEMBL document CHEMBL5726119, “Macrocyclic compounds as IRAK4 inhibitors for the treatment of inflammatory diseases” (2017)
